Values of other authors in patent US20260007589A1, “METHOD FOR DYEING KERATINOUS MATERIAL COMPRISING THE USE OF AN ORGANOSILICON COMPOUND, AN EFFECT PIGMENT, AND A FILM-FORMING POLYMER III” (Henkel AG & Co. KGaA, priority 2019, published 2026).
Where two headings read alike, the source gives them in different places. Values belong to the compound of their own block, whether it stands above or below them.

Compound: O=S(=O)([O-])c1ccc(N=Nc2c(O)ccc3ccccc23)cc1.[Na+] [Acid Orange 7, sodium salt of 4-[(2-hydroxy-1-naphthyl)azo]benzene sulphonate]
solubility in water (25° C.): more than 7 g/L

Compound: O=C([O-])c1c(Cl)c(Cl)c(Cl)c(Cl)c1-c1c2c(Br)cc(=O)c(Br)c-2oc2c(Br)c(O)cc(Br)c12.O=C([O-])c1c(Cl)c(Cl)c(Cl)c(Cl)c1-c1c2c(Br)cc(=O)c(Br)c-2oc2c(Br)c(O)cc(Br)c12.[Na+].[Na+] [Acid Red 92, disodium salt of 3,4,5,6-tetrachloro-2-(1,4,5,8-tetrabromo-6-hydroxy-3-oxoxanthen-9-yl)benzoic acid]
solubility in water (25° C.): greater than 10 g/L

Compound: O=C([O-])C1=NN(c2ccc(S(=O)(=O)[O-])cc2)C(=O)C1N=Nc1ccc(S(=O)(=O)[O-])cc1.[Na+].[Na+].[Na+] (centres unmarked) [Acid Yellow 23, trisodium salt of 4,5-dihydro-5-oxo-1-(4-sulfophenyl)-4-((4-sulfophenyl)azo)-1H-pyrazole-3-carboxylic acid]
solubility in water (at 25° C.): highly soluble in water

The next lines start with the values.

solubility in water (25° C.): more than 20 % by weight
Compound: CCN(Cc1cccc(S(=O)(=O)[O-])c1)c1ccc(C(=C2C=CC(=[N+](CC)Cc3cccc(S(=O)(=O)[O-])c3)C=C2)c2ccccc2S(=O)(=O)[O-])cc1.[Na+].[Na+] [Acid Blue 9]

solubility in water (25° C.): 2500 µg/mL
Compound: Nc1cc(S(=O)(=O)[O-])cc2cc(S(=O)(=O)[O-])c(N=Nc3ccccc3)c(O)c12.[Na+].[Na+] [Acid Red 33, disodium salt of 5-amino-4-hydroxy-3-(phenylazo)-naphthalene-2,7-disulphonate]
